# Measured values published in patent publication US9561197B2 (Horizon Therapeutics, LLC, priority 2012, dated 2017).
# Where two headings read alike, the source gives them in different places.
# Tests used:
# [1] = Patient 1
# [2] = not given; remark: listed apart in the source
# [3] = Patient 2
"PAGN (human, in vivo) [µg/L]","complaints (human, in vivo)","unusual symptoms ([2]; human, in vivo)","unusual symptoms such as dizziness, headache, or nausea ([2]; human, in vivo)",Compound,"ammonia ([1]; HPN-100 9 mL/day, after overnight fasting) [µmol/L]","ammonia ([1]; HPN-100 9 mL/day, midday several hours after lunch) [µmol/L]","ammonia ([1]; HPN-100 12 mL/day for one week, after overnight fasting) [µmol/L]","ammonia ([1]; HPN-100 12 mL/day for one week, midday) [µmol/L]","symptoms (headache, lack of appetite) ([1]; after one week at HPN-100 12 mL/day)","ammonia (Patient 3, HPN-100 18 mL/day for the past month) [µmol/L]","episodes of HE ([2]; Patient 7, HPN-100 6 mL BID, during 3 months)","ammonia ([2]; Patient 7, HPN-100 6 mL BID, follow up after 3 months (blood ammonia 85 μmol/L before therapy)) [µmol/L]",ammonia ([3]; NaPBA 450 mg/Kg/day for one week) [µmol/L],ammonia levels ([3]; NaPBA 600 mg/kg per day) [µmol/L]
259,did not have any complaints,did not report any unusual symptoms,had not experienced any unusual symptoms,"O=C(CCCc1ccccc1)OCC(COC(=O)CCCc1ccccc1)OC(=O)CCCc1ccccc1 [HPN-100, glyceryl tri-[4-phenylbutyrate]]",55,117,9,35,all symptoms resolved,22,no episodes of HE,30,,
,,,,sodium phenylbutyrate [NaPBA],,,,,,,,,20,< 9
